Target: T1, Human M4 (Homo sapiens, UniProt P08173)
T1 construct: expressed in transfected cells
T1 sequence (P08173 1-479): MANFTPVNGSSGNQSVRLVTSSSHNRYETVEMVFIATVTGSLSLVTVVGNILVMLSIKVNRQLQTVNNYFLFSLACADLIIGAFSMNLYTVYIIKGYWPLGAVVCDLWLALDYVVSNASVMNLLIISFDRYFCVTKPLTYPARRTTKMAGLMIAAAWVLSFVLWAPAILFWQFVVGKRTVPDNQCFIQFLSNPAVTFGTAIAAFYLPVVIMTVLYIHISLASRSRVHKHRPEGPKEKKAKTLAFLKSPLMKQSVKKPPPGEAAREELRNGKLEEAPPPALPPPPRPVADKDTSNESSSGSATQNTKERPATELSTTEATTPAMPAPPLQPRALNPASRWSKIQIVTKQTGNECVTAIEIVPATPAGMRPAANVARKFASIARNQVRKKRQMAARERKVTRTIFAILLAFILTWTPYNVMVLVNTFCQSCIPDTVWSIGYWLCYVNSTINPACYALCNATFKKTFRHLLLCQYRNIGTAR
Experiment: mAChR M4 cell-based functional assay (calcium flux, PAM mode)
Conditions: hM4-Gqi5 CHO-K1 cells; for Emax at 30 µM: CHO-K1, % ACh maximum at 30 μM; for EC50: concentration-dependent increase in the EC20 acetylcholine response
Method in brief: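 PAM potency (EC50) and Emax came from four-parameter fits of the rise in EC20 acetylcholine-evoked calcium signal (Fluo-4, FDSS, 1 Hz). Human M4/Gqi5 CHO-K1 stable line; 11-point 1:3 compound series preceded ACh EC20 addition at 144 s, with EC80 ACh added at 230 s.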

Row | Compound | Emax at 30 µM [%] | EC50 [nM] | Human M4 Emax (%)* (% ACh maximum at 30 μM) [%]
1 | [2H]C1(Oc2ccc3c(c2)OCCO3)CCN(c2nn3c(=O)ccnc3cc2C)CC1 [Compound 48, 7-(4-((2,3-dihydrobenzo[b][1,4]dioxin-6-yl)oxy)piperidin-1-yl-4-d)-8-methyl-4H-pyrimido[1,2-b]pyridazin-4-one] | 91 | 46 | 
2 | Cc1cc2nccc(=O)n2nc1N1CCC(Oc2ccc3c(c2)OCCO3)CC1 [Compound 26, 7-(4-((2,3-dihydrobenzo[b][1,4]dioxin-6-yl)oxy)piperidin-1-yl)-8-methyl-4H-pyrimido[1,2-b]pyridazin-4-one] | 84 | 66 | 
3 | [2H]C1(Oc2ccc3c(c2)OCCO3)CCN(c2nn3c(=O)ccnc3c(C)c2C)CC1 [Compound 70, 7-(4-((2,3-dihydrobenzo[b][1,4]dioxin-6-yl)oxy)piperidin-1-yl-4-d)-8,9-dimethyl-4H-pyrimido[1,2-b]pyridazin-4-one] | 96 | 16 | 
4 | Cc1c(N2CCC(Oc3ccc(F)cc3)CC2)nn2c(=O)ccnc2c1C [Compound 83, 7-(4-(4-fluorophenoxy)piperidin-1-yl)-8,9-dimethyl-4H-pyrimido[1,2-b]pyridazin-4-one] | 89 | 186 | 
5 | Cc1cc2nccc(=O)n2nc1N1CC[C@@H](Oc2ccc3c(c2)OCCO3)C[C@H]1C [Compound 116, 7-((2R,4R)-4-((2,3-dihydrobenzo[b][1,4]dioxin-6-yl)oxy)-2-methylpiperidin-1-yl)-8-methyl-4H-pyrimido[1,2-b]pyridazin-4-one] | 71 | 1330 | 
6 | [2H]C1(Oc2ccc3c(c2)OCCO3)CCN(c2nn3c(=O)c(C)c(C)nc3cc2C)CC1 [Compound 60, 7-(4-((2,3-dihydrobenzo[b][1,4]dioxin-6-yl)oxy)piperidin-1-yl-4-d)-2,3,8-trimethyl-4H-pyrimido[1,2-b]pyridazin-4-one] | 91 | 28 | 
7 | [2H]C1([2H])Oc2ccc(OC3CCN(c4nn5c(=O)cc(C6CC6)nc5cc4C)CC3)cc2OC1([2H])[2H] [Compound 10, 2-Cyclopropyl-7-(4-((2,3-dihydrobenzo[b][1,4]dioxin-6-yl-2,2,3,3-d4)oxy)piperidin-1-yl)-8-methyl-4H-pyrimido[1,2-b]pyridazin-4-one] | 73 | 87 | 
8 | [2H]C1(Oc2ccc3c(c2)OC([2H])([2H])C([2H])([2H])O3)CCN(c2nn3c(=O)ccnc3c(C3CC3)c2C)CC1 [Compound 97, 9-cyclopropyl-7-(4-((2,3-dihydrobenzo[b][1,4]dioxin-6-yl-2,2,3,3-d4)oxy)piperidin-1-yl-4-d)-8-methyl-4H-pyrimido[1,2-b]pyridazin-4-one] | 78 | 424 | 
9 | [2H]C1(Oc2ccc3c(c2)OC([2H])([2H])C([2H])([2H])O3)CCN(c2nn3c(=O)cc(CC4CCCC4)nc3c(C)c2C)CC1 [Compound 101, 2-(cyclopentylmethyl)-7-(4-((2,3-dihydrobenzo[b][1,4]dioxin-6-yl-2,2,3,3-d4)oxy)piperidin-1-yl-4-d)-8,9-dimethyl-4H-pyrimido[1,2-b]pyridazin-4-one] | 81 | 1470 | 
10 | [2H]C1([2H])Oc2ccc(OC3CCN(c4nn5c(=O)c(C6CC6)cnc5cc4C)CC3)cc2OC1([2H])[2H] [Compound 30, 3-cyclopropyl-7-(4-((2,3-dihydrobenzo[b][1,4]dioxin-6-yl-2,2,3,3-d4)oxy)piperidin-1-yl)-8-methyl-4H-pyrimido[1,2-b]pyridazin-4-one] | 80 | 73 | 
11 | [2H]C1([2H])Oc2ccc(OC3CCN(c4nn5c(=O)ccnc5c(C)c4C4CC4)CC3)cc2OC1([2H])[2H] [Compound 21, 8-cyclopropyl-7-(4-((2,3-dihydrobenzo[b][1,4]dioxin-6-yl-2,2,3,3-d4)oxy)piperidin-1-yl)-9-methyl-4H-pyrimido[1,2-b]pyridazin-4-one] |  | 2070 | 82

— patent US11884676B2, “Substituted pyrimido[1,2-b]pyridazines as positive allosteric modulators of the muscarinic acetylcholine receptor M4” (Vanderbilt University, priority 2020, dated 2024)
